Where “and” joins values, the source holds several entries; their conditions need not be identical. Identical values can stand only once.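 Interpolation was linear, between the two tested concentrations surrounding the appropriate level; five concentrations were tested over 48 hours in 96-well plates. GI50 marks 50% less growth. TGI: total growth inhibition.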
System: MALME-3M melanoma
Assay: DTP human tumour cell line panel, 48 h

SMILES | TGI | GI50 [µM]
CCOC(=O)CN1C(=O)c2ccc(NC(=O)C(=O)O)cc2S1(=O)=O | > 100 µM | 
COc1ccc2cc(/C=N/NC(=O)Nc3ccccc3)ccc2c1 | > 100 µM | 
C=C(Cl)C(Br)(CCl)CCC(Br)C(C)(C)Cl (stereo unspecified) | 8.51 µM and 4.96 µM | 2.22
CC(O)C1(CNc2cc(Cl)nc(N)n2)CCC1 (stereo unspecified) | > 100 µM | 
COC(=O)C(Cc1c[nH]c2ccccc12)NP(=O)(O)OCC1OC(n2cc(I)c(=O)[nH]c2=O)CC1O (stereo unspecified) | > 100 µM | 
O=c1cnn(C/C=C/CO)c(=O)[nH]1 | > 100 µM | 
N#Cc1c(-c2ccc(Cl)cc2Cl)nc2[nH][nH]c(=S)n2c1=O | > 100 µM | 

System: SF-295 CNS
Assay: DTP human tumour cell line panel, 48 h

SMILES | TGI [µM]
CCOC(=O)CN1C(=O)c2ccc(NC(=O)C(=O)O)cc2S1(=O)=O | > 100
COc1ccc2cc(/C=N/NC(=O)Nc3ccccc3)ccc2c1 | > 100
C=C(Cl)C(Br)(CCl)CCC(Br)C(C)(C)Cl (stereo unspecified) | 19.9
CC(O)C1(CNc2cc(Cl)nc(N)n2)CCC1 (stereo unspecified) | > 100
COC(=O)C(Cc1c[nH]c2ccccc12)NP(=O)(O)OCC1OC(n2cc(I)c(=O)[nH]c2=O)CC1O (stereo unspecified) | > 100
N#Cc1c(-c2ccc(Cl)cc2Cl)nc2[nH][nH]c(=S)n2c1=O | > 100

System: NCI-H460 lung
Assay: DTP human tumour cell line panel, 48 h

SMILES | TGI [µM]
CCOC(=O)CN1C(=O)c2ccc(NC(=O)C(=O)O)cc2S1(=O)=O | > 100
COc1ccc2cc(/C=N/NC(=O)Nc3ccccc3)ccc2c1 | > 100
C=C(Cl)C(Br)(CCl)CCC(Br)C(C)(C)Cl (stereo unspecified) | 20.7
CC(O)C1(CNc2cc(Cl)nc(N)n2)CCC1 (stereo unspecified) | > 100
COC(=O)C(Cc1c[nH]c2ccccc12)NP(=O)(O)OCC1OC(n2cc(I)c(=O)[nH]c2=O)CC1O (stereo unspecified) | > 100
O=c1cnn(C/C=C/CO)c(=O)[nH]1 | > 100
N#Cc1c(-c2ccc(Cl)cc2Cl)nc2[nH][nH]c(=S)n2c1=O | > 100

System: RPMI-8226 leukemia
Assay: DTP human tumour cell line panel, 48 h

SMILES | TGI [µM]
CCOC(=O)CN1C(=O)c2ccc(NC(=O)C(=O)O)cc2S1(=O)=O | > 100
COc1ccc2cc(/C=N/NC(=O)Nc3ccccc3)ccc2c1 | > 100
C=C(Cl)C(Br)(CCl)CCC(Br)C(C)(C)Cl (stereo unspecified) | 3.06
CC(O)C1(CNc2cc(Cl)nc(N)n2)CCC1 (stereo unspecified) | > 100
COC(=O)C(Cc1c[nH]c2ccccc12)NP(=O)(O)OCC1OC(n2cc(I)c(=O)[nH]c2=O)CC1O (stereo unspecified) | > 100
O=c1cnn(C/C=C/CO)c(=O)[nH]1 | > 100
N#Cc1c(-c2ccc(Cl)cc2Cl)nc2[nH][nH]c(=S)n2c1=O | > 100

System: NCI-H522 lung
Assay: DTP human tumour cell line panel, 48 h

SMILES | TGI | GI50 [µM]
CCOC(=O)CN1C(=O)c2ccc(NC(=O)C(=O)O)cc2S1(=O)=O | > 100 µM | 
C=C(Cl)C(Br)(CCl)CCC(Br)C(C)(C)Cl (stereo unspecified) | 9.26 µM and 6.43 µM | 2.82
CC(O)C1(CNc2cc(Cl)nc(N)n2)CCC1 (stereo unspecified) | > 100 µM | 
COC(=O)C(Cc1c[nH]c2ccccc12)NP(=O)(O)OCC1OC(n2cc(I)c(=O)[nH]c2=O)CC1O (stereo unspecified) | > 100 µM | 
O=c1cnn(C/C=C/CO)c(=O)[nH]1 | > 100 µM | 
N#Cc1c(-c2ccc(Cl)cc2Cl)nc2[nH][nH]c(=S)n2c1=O | > 100 µM | 

System: DU-145 prostate
Assay: DTP human tumour cell line panel, 48 h

SMILES | TGI [µM]
CCOC(=O)CN1C(=O)c2ccc(NC(=O)C(=O)O)cc2S1(=O)=O | > 100
COc1ccc2cc(/C=N/NC(=O)Nc3ccccc3)ccc2c1 | > 100
C=C(Cl)C(Br)(CCl)CCC(Br)C(C)(C)Cl (stereo unspecified) | 26.7
CC(O)C1(CNc2cc(Cl)nc(N)n2)CCC1 (stereo unspecified) | > 100
COC(=O)C(Cc1c[nH]c2ccccc12)NP(=O)(O)OCC1OC(n2cc(I)c(=O)[nH]c2=O)CC1O (stereo unspecified) | > 100
O=c1cnn(C/C=C/CO)c(=O)[nH]1 | > 100
N#Cc1c(-c2ccc(Cl)cc2Cl)nc2[nH][nH]c(=S)n2c1=O | > 100

System: SF-539 CNS
Assay: DTP human tumour cell line panel, 48 h

SMILES | GI50 [µM] | TGI [µM]
C=C(Cl)C(Br)(CCl)CCC(Br)C(C)(C)Cl (stereo unspecified) | 1.98 | 3.86
CC(O)C1(CNc2cc(Cl)nc(N)n2)CCC1 (stereo unspecified) |  | > 100
COC(=O)C(Cc1c[nH]c2ccccc12)NP(=O)(O)OCC1OC(n2cc(I)c(=O)[nH]c2=O)CC1O (stereo unspecified) |  | > 100

System: MOLT-4 leukemia
Assay: DTP human tumour cell line panel, 48 h

SMILES | TGI [µM]
CCOC(=O)CN1C(=O)c2ccc(NC(=O)C(=O)O)cc2S1(=O)=O | > 100
COc1ccc2cc(/C=N/NC(=O)Nc3ccccc3)ccc2c1 | > 100
C=C(Cl)C(Br)(CCl)CCC(Br)C(C)(C)Cl (stereo unspecified) | 8.82
CC(O)C1(CNc2cc(Cl)nc(N)n2)CCC1 (stereo unspecified) | > 100
COC(=O)C(Cc1c[nH]c2ccccc12)NP(=O)(O)OCC1OC(n2cc(I)c(=O)[nH]c2=O)CC1O (stereo unspecified) | > 100

From PubChem BioAssay (NCI)
